Reference: ChEMBL document CHEMBL2169830, “Identification, synthesis, and biological evaluation of the metabolites of 3-amino-6-(3'-aminopropyl)-5H-indeno[1,2-c]isoquinoline-5,11-(6H)dione (AM6-36), a promising rexinoid lead compound for the development of cancer chemotherapeutic and chemopreventive agents” (J Med Chem, 2012)

Tests used:
Liver microsomes [1] = assay: Drug metabolism in human liver microsomes assessed as formation of 6-(3-hydroxypropyl)-3-amino-5H-indeno[1,2-c]-isoquinoline-5,11(6H)-dione at 1 uM preincubated for 10 mins prior to NADPH addition measured 60 mins post NADPH addition; type: ADME, Microsome; conditions: 1 h
[2] = Cytotoxicity against human HEK293 cells assessed as cell survival at 50 uM relative to control; type: cell-based; conditions: read-out: Survival
Liver microsomes [3] = assay: Half life in human liver microsomes at 1 uM; type: ADME, Microsome
Liver [4] = assay: Drug metabolism in Sprague-Dawley rat assessed as N-[6-(3-Aminopropyl)-5,11-dioxo-6,11-dihydro-5H-indeno- [1,2-c]isoquinolin-3-yl]acetamide level in liver at 40 mg/kg, po administered 3 days; type: ADME, organism-based; parameters: dose 40 mg/kg, route oral; conditions: in vivo, 72 h
Hepatocyte [5] = assay: Drug metabolism in human hepatocytes assessed as formation of 6-(3-aminopropyl)-3-((2R,3R,4S,5S,6R)-3,4,5-trihydroxy-6-(hydroxymethyl)tetrahydro-2H-pyran-2-ylamino)-5H-indeno[1,2-c]isoquinoline-5,11(6H)-dione at 50 uM after 4 hrs; type: ADME, cell-based
[6] = Cytotoxicity against african green monkey COS1 cells assessed as cell survival at 50 uM relative to control; type: cell-based; conditions: chlorocebus aethiops, COS-1 cells; read-out: Survival
Liver [7] = assay: Drug metabolism in Sprague-Dawley rat assessed as 3-Amino-11-hydroxy-6-(3-hydroxypropyl)-6,11-dihydro-5Hindeno[1,2-c]isoquinolin-5-one level in liver at 40 mg/kg, po administered 3 days; type: ADME, organism-based; parameters: dose 40 mg/kg, route oral; conditions: in vivo, 72 h
Liver [8] = assay: Drug metabolism in Sprague-Dawley rat assessed as 6-(3-Hydroxypropyl)-3-amino-5H-indeno[1,2- c]-isoquinoline-5,11(6H)dione level in liver at 40 mg/kg, po administered 3 days; type: ADME, organism-based; parameters: dose 40 mg/kg, route oral; conditions: in vivo, 72 h
Hepatocyte [9] = assay: Drug metabolism in human hepatocytes assessed as formation of N-[6-(3-Aminopropyl)-5,11-dioxo-6,11-dihydro-5H-indeno-[1,2-c]isoquinolin-3-yl]acetamide at 50 uM after 4 hrs; type: ADME, cell-based
Liver microsomes [10] = assay: Drug metabolism in human liver microsomes assessed as formation of 3-Amino 6-(3-aminopropyl)-11-hydroxy-6,11-dihydro-5H-indeno[1,2-c]isoquinolin-5-one at 1 uM preincubated for 10 mins prior to NADPH addition measured 60 mins post NADPH addition; type: ADME, Microsome; conditions: 1 h
Hepatocyte [11] = assay: Drug metabolism in human hepatocytes assessed as formation of 3-Amino-11-hydroxy-6-(3-hydroxypropyl)-6,11-dihydro-5H-5Hindeno[1,2-c]isoquinolin-5-one at 50 uM after 4 hrs; type: ADME, cell-based
[12] = Drug metabolism in Sprague-Dawley rat assessed as N-[6-(3-Hydroxypropyl)-5,11-dioxo-6,11-dihydro-5Hindeno[1,2-c]isoquinolin-3-yl]acetamide level in mammary gland at 40 mg/kg, po administered 3 days; type: ADME, organism-based; parameters: dose 40 mg/kg, route oral; conditions: in vivo, 72 h
Liver microsomes [13] = assay: Drug metabolism in human liver microsomes assessed as formation of 6-(3-hydroxypropyl)-3-amino-5H-indeno[1,2-c]-isoquinoline-5,11(6H)-dione at 1 uM after 60 mins in presence of NADPH and monoamine oxidase inhibitors clorgiline, pargyline; type: ADME, Microsome; conditions: 1 h
[14] = Drug metabolism in Sprague-Dawley rat assessed as N-[6-(3-Aminopropyl)-5,11-dioxo-6,11-dihydro-5H-indeno- [1,2-c]isoquinolin-3-yl]acetamide level in mammary gland at 40 mg/kg, po administered 3 days; type: ADME, organism-based; parameters: dose 40 mg/kg, route oral; conditions: in vivo, 72 h
[15] = Drug metabolism in Sprague-Dawley rat assessed as 3-Amino-11-hydroxy-6-(3-hydroxypropyl)-6,11-dihydro-5Hindeno[1,2-c]isoquinolin-5-one level in mammary gland at 40 mg/kg, po administered 3 days; type: ADME, organism-based; parameters: dose 40 mg/kg, route oral; conditions: in vivo, 72 h
[16] = Drug metabolism in Sprague-Dawley rat assessed as parent compound level in mammary gland at 40 mg/kg, po administered 3 days; type: ADME, organism-based; parameters: dose 40 mg/kg, route oral; conditions: read-out: Drug metabolism
Hepatocyte [17] = assay: Drug metabolism in human hepatocytes assessed as formation of N-[6-(3-Aminopropyl)-11-hydroxy-5-oxo-6,11-dihydro-5H-5Hindeno[ 1,2-c]isoquinolin-3-yl]acetamide at 50 uM after 4 hrs; type: ADME, cell-based
Liver [18] = assay: Drug metabolism in Sprague-Dawley rat assessed as N-[6-(3-Hydroxypropyl)-5,11-dioxo-6,11-dihydro-5Hindeno[1,2-c]isoquinolin-3-yl]acetamide level in liver at 40 mg/kg, po administered 3 days; type: ADME, organism-based; parameters: dose 40 mg/kg, route oral; conditions: in vivo, 72 h
[19] = Inhibition of TNFalpha-induced human NFkappaB activity in HEK293 cells incubated for 6 hrs followed by compound wash out measured after 5 mins by luciferase assay; type: cell-based
[20] = Drug metabolism in Sprague-Dawley rat assessed as parent compound level in serum at 40 mg/kg, po administered 3 days; type: ADME, organism-based; parameters: dose 40 mg/kg, route oral; conditions: read-out: Drug metabolism
Hepatocyte [21] = assay: Drug metabolism in human hepatocytes assessed as formation of 3-Amino 6-(3-aminopropyl)-11-hydroxy-6,11-dihydro-5H-indeno[1,2-c]isoquinolin-5-one at 50 uM after 4 hrs; type: ADME, cell-based
[22] = Drug metabolism in Sprague-Dawley rat assessed as 3-Amino-6-(3-aminopropyl)-11-hydroxy-6,11-dihydro-5Hindeno[1,2-c]isoquinolin-5-one level in mammary gland at 40 mg/kg, po administered 3 days; type: ADME, organism-based; parameters: dose 40 mg/kg, route oral; conditions: in vivo, 72 h
Liver [23] = assay: Drug metabolism in Sprague-Dawley rat assessed as 3-Amino-6-(3-aminopropyl)-11-hydroxy-6,11-dihydro-5Hindeno[1,2-c]isoquinolin-5-one level in liver at 40 mg/kg, po administered 3 days; type: ADME, organism-based; parameters: dose 40 mg/kg, route oral; conditions: in vivo, 72 h
Liver microsomes [24] = assay: Metabolic stability in human liver microsomes assessed as GSH conjugate formation at 10 uM; type: ADME, Microsome
[25] = Drug metabolism in Sprague-Dawley rat assessed as parent compound level in liver at 40 mg/kg, po administered 3 days; type: ADME, organism-based; parameters: dose 40 mg/kg, route oral; conditions: read-out: Drug metabolism
Hepatocyte [26] = assay: Drug metabolism in human hepatocytes assessed as formation of N-[6-(3-Hydroxypropyl)-5,11-dioxo-6,11-dihydro-5H-5Hindeno[ 1,2-c]isoquinolin 3-yl]acetamide at 50 uM after 4 hrs; type: ADME, cell-based
Serum [27] = assay: Drug metabolism in Sprague-Dawley rat assessed as N-[6-(3-Hydroxypropyl)-5,11-dioxo-6,11-dihydro-5Hindeno[1,2-c]isoquinolin-3-yl]acetamide level in serum at 40 mg/kg, po administered 3 days; type: ADME, organism-based; parameters: dose 40 mg/kg, route oral; conditions: in vivo, 72 h
Serum [28] = assay: Drug metabolism in Sprague-Dawley rat assessed as N-[6-(3-Aminopropyl)-5,11-dioxo-6,11-dihydro-5H-indeno- [1,2-c]isoquinolin-3-yl]acetamide level in serum at 40 mg/kg, po administered 3 days; type: ADME, organism-based; parameters: dose 40 mg/kg, route oral; conditions: in vivo, 72 h
Plasma = conditions: human, 10 µM
Description: Plasma protein binding in human plasma at 10 uM

[29] = molecular target: T1, Retinoic acid receptor RXR-alpha (Homo sapiens, UniProt P19793); assay: Agonist activity at human RXRalpha expressed in african green monkey COS1 cells assessed as induction of RXRE transcriptional activity after 12 hrs by luciferase reporter gene assay; type: functional, cell-based, COS-1
T1 sequence (P19793 whole entry): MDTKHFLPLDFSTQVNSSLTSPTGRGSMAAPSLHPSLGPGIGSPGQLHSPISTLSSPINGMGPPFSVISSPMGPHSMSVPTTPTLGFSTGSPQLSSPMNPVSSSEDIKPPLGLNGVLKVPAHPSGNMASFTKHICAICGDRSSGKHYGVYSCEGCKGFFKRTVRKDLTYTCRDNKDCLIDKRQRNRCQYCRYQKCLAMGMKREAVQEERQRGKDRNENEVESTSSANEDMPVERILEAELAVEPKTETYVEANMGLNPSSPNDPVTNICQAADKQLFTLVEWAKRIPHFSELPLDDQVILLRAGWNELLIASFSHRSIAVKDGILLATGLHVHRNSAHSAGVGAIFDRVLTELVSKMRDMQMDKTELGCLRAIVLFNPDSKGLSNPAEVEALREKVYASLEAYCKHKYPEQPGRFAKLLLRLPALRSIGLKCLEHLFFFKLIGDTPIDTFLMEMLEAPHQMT

Hepatocyte [30] = assay: Drug metabolism in human hepatocytes assessed as formation of 6-(3-Hydroxypropyl)-3-amino 5H-indeno[1,2c]-isoquinoline-5,11(6H)dione at 50 uM after 4 hrs; type: ADME, cell-based
Serum [31] = assay: Drug metabolism in Sprague-Dawley rat assessed as 3-Amino-6-(3-aminopropyl)-11-hydroxy-6,11-dihydro-5Hindeno[1,2-c]isoquinolin-5-one level in serum at 40 mg/kg, po administered 3 days; type: ADME, organism-based; parameters: dose 40 mg/kg, route oral; conditions: in vivo, 72 h
HEK293 = assay: Inhibition of TNFalpha-induced human NFkappaB activity in HEK293 cells at 50 uM incubated for 6 hrs followed by compound wash out measured after 5 mins by luciferase assay; type: cell-based
Serum [32] = assay: Drug metabolism in Sprague-Dawley rat assessed as 3-Amino-11-hydroxy-6-(3-hydroxypropyl)-6,11-dihydro-5Hindeno[1,2-c]isoquinolin-5-one level in serum at 40 mg/kg, po administered 3 days; type: ADME, organism-based; parameters: dose 40 mg/kg, route oral; conditions: in vivo, 72 h
[33] = Drug metabolism in Sprague-Dawley rat assessed as 6-(3-Hydroxypropyl)-3-amino-5H-indeno[1,2- c]-isoquinoline-5,11(6H)dione level in mammary gland at 40 mg/kg, po administered 3 days; type: ADME, organism-based; parameters: dose 40 mg/kg, route oral; conditions: in vivo, 72 h
Serum [34] = assay: Drug metabolism in Sprague-Dawley rat assessed as 6-(3-Hydroxypropyl)-3-amino-5H-indeno[1,2- c]-isoquinoline-5,11(6H)dione level in serum at 40 mg/kg, po administered 3 days; type: ADME, organism-based; parameters: dose 40 mg/kg, route oral; conditions: in vivo, 72 h

## NCCCn1c2c(c3ccc(N)cc3c1=O)C(=O)c1ccccc1-2
Liver microsomes [1]
  Drug metabolism: Active
[2]
  viability at 50 µM: 109%
Liver microsomes [3]
  t1/2: 2.17 h
Liver [4]
  Drug metabolism: Active
Hepatocyte [5]
  Drug metabolism: Active
[6]
  viability at 50 µM: 58.6%
Liver [7]
  Drug metabolism: Active
Liver [8]
  Drug metabolism: Active
Hepatocyte [9]
  Drug metabolism: Active
Liver microsomes [10]
  Drug metabolism: Active
Hepatocyte [11]
  Drug metabolism: Active
[12]
  Drug metabolism: Not Active
Liver microsomes [13]
  Drug metabolism: Active
[14]
  Drug metabolism: Not Active
[15]
  Drug metabolism: Not Active
[16]
  concentration at 72 h: 300 ng/g
Hepatocyte [17]
  Drug metabolism: Active
Liver [18]
  Drug metabolism: Active
[19]
  IC50: 26.3 µM
[20]
  concentration at 72 h: 800 ng/mL
Hepatocyte [21]
  Drug metabolism: Active
[22]
  Drug metabolism: Not Active
Liver [23]
  Drug metabolism: Active
Liver microsomes [24]
  Stability: Stable
[25]
  concentration at 72 h: 4300 ng/g
Hepatocyte [26]
  Drug metabolism: Active
Serum [27]
  Drug metabolism: Not Active
Serum [28]
  Drug metabolism: Active
Plasma
  PPB: 75%
[29]
  EC50: 3.37 µM
Hepatocyte [30]
  Drug metabolism: Active
Serum [31]
  Drug metabolism: Not Active
HEK293
  inhibition: 84.9%
Serum [32]
  Drug metabolism: Not Active
[33]
  Drug metabolism: Not Active
Serum [34]
  Drug metabolism: Not Active
